# Data as given in US8389236B2, “Assay” (Otago Innovation Limited, priority 2005, dated 2013).
# Where “and” joins values, the source holds several entries; their conditions need not be identical. Identical values can stand only once.
# Legend:
# [1] = tested on: HIV-1 gag/pol −1 frameshift signal sequence (HIV-1 frameshift construct); experiment: Stably transfected dual fluorescent reporter recoding assay in Flp-In CV1 cells (−1 frame construct); format: cell-based; details: for DsRed/EGFP ratio / Percentage decrease in ratio / Minus 1 Frameshift Construct EGFP signal, Average / Minus 1 Frameshift Construct DsRed signal, Average: 120 hours; for DsRed/EGFP ratio / Percentage decrease in ratio: stable Flp-In CV1 cells; for DsRed/EGFP ratio: not normalised to Null 0, expressed as a percentage; for Percentage decrease in ratio: vs no drug; for Minus 1 Frameshift Construct EGFP signal, Average: 485 excitation 515 emission; for Minus 1 Frameshift Construct DsRed signal, Average: 535 excitation 590 emission
# Protocol: The translational recoding construct described above was excised via Hind III and Not I restrictions sites and ligated into a Flp-In™ pcDNA5/FRT expression vector (Invitrogen Life Technologies) before being stably transformed into Flp-In™ CV1 cells (Invitrogen Life Technologies) according to the manufacturer's instructions.
# Flp-In CV1 cells (CV1 cells), as described in Example 2, transfected with the −1 frame construct, and untransfected CV1 cells were grown, harvested, trypsinised, washed and diluted to 1×10^5 cells/ml all under standard conditions.
# Cells were then seeded in 96 well plates under standard conditions. The plates were then incubated for 120 hours at 37° C.
# (§1) The cells were washed 3 times with Phosphate Buffered Saline (PBS) to remove any traces of culture medium. 100 ul of Passive Lysis buffer (Promega) was added. The cells were frozen. The frozen cells were then thawed and fluorescence intensity was read in the Tecan Genios Pro plate reader.
# Plate reader setting were as follows:
# Filters 485 excitation, 515 emission
# Filters 535 excitation, 590 emission
# As a Null 0 frameshift construct was not used in this experiment ratios of the DsRed to EGFP signal were calculated to take into account the decrease in the EGFP signal with increasing drug concentrations.
# The calculation was similar to example 3, with the counts averaged, the control cell counts removed before working out the ratio of the DsRed signal to the EGFP signal. Normalisation using a Null 0 frame construct could not be performed, with the results below being expressed as a percentage. The calculation was a follows: [[DsRed signal: HIV-1 frameshift construct]/[EGFP signal: HIV-1 frameshift construct]]
# [2] = tested on: HIV-1 gag/pol −1 frameshift signal sequence (HIV-1 frameshift construct); experiment: Dual fluorescent reporter (EGFP/DsRed) recoding assay in transiently transfected COS-7 cells, with Null 0 control construct; format: cell-based; details: for Minus 1 Frameshift Construct EGFP signal, Average / Null 0 Frameshift Construct EGFP signal, Average: 485 excitation 520-P emission; for Minus 1 Frameshift Construct DsRed signal, Average / Null 0 Frameshift Construct DsRed signal, Average: 525 excitation 600LP emission; for Frameshift: DsRed 525 excitation/600LP emission
# Protocol: Mammalian COS-7 cells were grown, harvested, trypsinised, washed and diluted to 1×10^5 cells/ml all under standard conditions.
# The diluted cells were then split into two equal portions. One portion was transiently transfected with the recoding construct, and other with the Null 0 frame control construct. Transient transfection was performed using 2 μL of FuGENE® 6 transfection reagent (Roche) and 500 ng of DNA for every mL of cells, in accordance with the manufacturing instructions.
# Transfected cells were seeded in 24 well plates under standard conditions. Cycloheximide was added in triplicate at 50 nM and the plates were then incubated for 48 hours at 37° C.
# as §1, with “and transferred to a 96 well plate, and” for “and”, “BMG PolarStar” for “Tecan Genios Pro”
# Plate reader settings were as follows:
# Filters 485 excitation, 520-P emission
# Filters 544 excitation, 590 emission
# [[DsRed signal: HIV-1 frameshift construct]/[EGFP signal: HIV-1 frameshift construct]]/[[DsRed signal: Null 0 frameshift construct]/[EGFP signal: Null 0 frameshift construct]]
# The diluted cells were then split into two equal portions. One portion was transfected, as described in Example 3, with the recoding construct, and other with the Null 0 frame control construct.
# Cells were then seeded in 24 well plates under standard conditions. Anisomycin was added in triplicate at 50 nM and the plates were then incubated for 48 hours at 37° C.
# The cells were prepared as described in examples 3 and 4.
# DsRed signal at 525 excitation, 600LP emission
# EGFP signal at 485 excitation, 520-P emission
# Frameshift figures, shown in Table 5, were calculated using the formula shown in Example 3 using data from Tables 1, 2, 3 and 4.
# Transfected cells were prepared as described in Example 5, and treated with 0 nM (no drug) 100 nM, 200 nM, 300 nM, 400 nM and 500 nM concentrations of anisomycin.
# Incubation, plate reader setting and readings were as described in Example 5.
# For the anisomycin titrations, the frameshift figures, shown in Table 10, were calculated using the formula shown in Example 3 using data from Tables 6, 7, 8 and 9.
# [3] = 50 nM, 48 hours, 485 excitation, 520-P emission
# [4] = 50 nM, 48 hours, 544 excitation, 590 emission
# [5] = 100 nM, COS-7, 525/600LP filters, vs no drugs
compound,measurement,setting,value
C[C@@H]1C[C@@H]([C@H](O)CC2CC(=O)NC(=O)C2)C(=O)[C@@H](C)C1 [Cycloheximide],DsRed/EGFP ratio,[1]; 50 nM,7.38%
same,Percentage decrease in ratio,[1]; 50 nM,4.11%
same,"Minus 1 Frameshift Construct EGFP signal, Average",[1]; 50 nM,11313
same,"Minus 1 Frameshift Construct DsRed signal, Average",[1]; 50 nM,1220
same,DsRed/EGFP ratio,[1]; 100 nM,7.28%
same,Percentage decrease in ratio,[1]; 100 nM,5.39%
same,"Minus 1 Frameshift Construct EGFP signal, Average",[1]; 100 nM,11262
same,"Minus 1 Frameshift Construct DsRed signal, Average",[1]; 100 nM,1210
same,DsRed/EGFP ratio,[1]; 500 nM,5.47%
same,Percentage decrease in ratio,[1]; 500 nM,28.91%
same,"Minus 1 Frameshift Construct EGFP signal, Average",[1]; 500 nM,8638
same,"Minus 1 Frameshift Construct DsRed signal, Average",[1]; 500 nM,948
same,DsRed/EGFP ratio,[1]; 1000 nM,3.25%
same,Percentage decrease in ratio,[1]; 1000 nM,57.82%
same,"Minus 1 Frameshift Construct EGFP signal, Average",[1]; 1000 nM,7308
same,"Minus 1 Frameshift Construct DsRed signal, Average",[1]; 1000 nM,818
same,DsRed/EGFP ratio,[1]; 2000 nM,−2.94%
same,Percentage decrease in ratio,[1]; 2000 nM,138.27%
same,"Minus 1 Frameshift Construct EGFP signal, Average",[1]; 2000 nM,6285
same,"Minus 1 Frameshift Construct DsRed signal, Average",[1]; 2000 nM,688
same,% decrease in ratio over concentration range,"[1]; range between 50 nM and 2000 nM, stable cells, result in words",dose responsive effect
same,decrease in frameshift from the original (no drug) value,"[2]; 50 nM, 48 hours, COS-7, 544/590 filters",5%
same,absolute change frameshift efficiency,"[2]; 50 nM, 48 hours, COS-7, vs no drug control, 544/590 filters",0.29%
same,"EGFP signal, HIV-1 frameshift construct, average",[2]; [3],24268 RFU
same,"EGFP signal, HIV-1 frameshift construct, average minus control",[2]; [3],23858 RFU
same,"EGFP signal, Null 0 frameshift construct, average",[2]; [3],42054 RFU
same,"EGFP signal, Null 0 frameshift construct, average minus control",[2]; [3],41644 RFU
same,"DsRed signal, HIV-1 frameshift construct, average",[2]; [4],1447 RFU
same,"DsRed signal, HIV-1 frameshift construct, average minus control",[2]; [4],1342 RFU
same,"DsRed signal, Null 0 frameshift construct, average",[2]; [4],43596 RFU
same,"DsRed signal, Null 0 frameshift construct, average minus control",[2]; [4],43491 RFU
same,"Minus 1 Frameshift Construct EGFP signal, Average",[2]; 100 nM,23068
same,"Null 0 Frameshift Construct EGFP signal, Average",[2]; 100 nM,41181
same,"Minus 1 Frameshift Construct DsRed signal, Average",[2]; 100 nM,2384
same,"Null 0 Frameshift Construct DsRed signal, Average",[2]; 100 nM,39126
same,Percentage decrease in frameshift,[2]; [5],2.7% and 2.71%
same,absolute change in frameshift efficiency,[2]; [5],0.23%
same,Frameshift,"[2]; 100 nM, COS-7",8.25%
same,"Minus 1 Frameshift Construct EGFP signal, Average",[2]; 200 nM,25793
same,"Null 0 Frameshift Construct EGFP signal, Average",[2]; 200 nM,42120
same,"Minus 1 Frameshift Construct DsRed signal, Average",[2]; 200 nM,2567
same,"Null 0 Frameshift Construct DsRed signal, Average",[2]; 200 nM,40152
same,Percentage decrease in frameshift,"[2]; 200 nM, COS-7, 525/600LP filters, vs no drugs",4.51%
same,Frameshift,"[2]; 200 nM, COS-7",8.10%
same,"Minus 1 Frameshift Construct EGFP signal, Average",[2]; 300 nM,27197
same,"Null 0 Frameshift Construct EGFP signal, Average",[2]; 300 nM,46595
same,"Minus 1 Frameshift Construct DsRed signal, Average",[2]; 300 nM,2674
same,"Null 0 Frameshift Construct DsRed signal, Average",[2]; 300 nM,45168
same,Percentage decrease in frameshift,"[2]; 300 nM, COS-7, 525/600LP filters, vs no drugs",6.17%
same,Frameshift,"[2]; 300 nM, COS-7",7.96%
same,"Minus 1 Frameshift Construct EGFP signal, Average",[2]; 400 nM,27613
same,"Null 0 Frameshift Construct EGFP signal, Average",[2]; 400 nM,42950
same,"Minus 1 Frameshift Construct DsRed signal, Average",[2]; 400 nM,2704
same,"Null 0 Frameshift Construct DsRed signal, Average",[2]; 400 nM,41311
same,Percentage decrease in frameshift,"[2]; 400 nM, COS-7, 525/600LP filters, vs no drugs",5.52%
same,Frameshift,"[2]; 400 nM, COS-7",8.01%
same,"Minus 1 Frameshift Construct EGFP signal, Average",[2]; 500 nM,28615
same,"Null 0 Frameshift Construct EGFP signal, Average",[2]; 500 nM,42742
same,"Minus 1 Frameshift Construct DsRed signal, Average",[2]; 500 nM,2790
same,"Null 0 Frameshift Construct DsRed signal, Average",[2]; 500 nM,41338
same,Percentage decrease in frameshift,"[2]; 500 nM, COS-7, 525/600LP filters, vs no drugs",5.66%
same,Frameshift,"[2]; 500 nM, COS-7",8.00%
same,effect on −1 frameshifting,[2]; result in words,antagonists to −1 frameshifting
